This series is described as follows: Transport of supinoxin in Caco-2 cells (bidirectional permeability). Conditions: human, supinoxin 1 µM. The series is classed as in vitro ADME. The method, then: The Caco-2 intestinal epithelial cell line (ATCC® HTB-37™) purchased from American Type Culture Collection (ATCC, Manassas, VA, USA) was cultured and maintained in Dulbecco’s modified Eagle medium (DMEM) containing 10% fetal bovine serum, 100 U/mL penicillin, and 0.1 mg/mL streptomycin under humidified atmosphere of air containing 5% CO2 at 37 °C. Caco-2 cells were seeded at a density of 6 × 10^4 cells/cm^2 onto polyethylene membranes of transwell plates (Corning Costar, Cambridge, MA, USA). The medium was replaced on alternate days after seeding, and cell monolayers were used for the transport assay after approximately 21 days of culture. Trans-epithelial electrical resistance (TEER) values of the Caco-2 monolayers were measured with an EVOM epithelial tissue voltmeter (World Precision Instruments, Sarasota, FL, USA), and cells with TEER greater than 300 Ω were used for the experiments. Cell monolayers were first rinsed three times with transport buffer (Hank’s balanced salt solution supplemented with 10 mM HEPES) and preincubated for 30 min at 37 °C. To measure the bidirectional transport of the compound, a transport buffer containing 1 µM supinoxin was added to the respective donor compartments (the apical and basolateral sides for absorptive and secretory transport assays, respectively). Samples (200 µL) were collected at 30, 60, 90, and 120 min, and an identical volume of fresh buffer was replenished. The samples were then subjected to LC–MS/MS analysis and concentrations of the samples were determined. After the final sampling from both compartments, we measured the TEER of the monolayers to ensure no possible adverse effects induced by the experimental procedures and then estimated the apparent permeability coefficient of supinoxin from the compound’s time-dependent accumulation (dQ/dt) in the receiver compartments using the following equation: Papp = dQ/dt × 1/(A × C0)(1) where dQ/dt is the rate of transport, A is the surface area of the filter, and C0 is the initial concentration in the donor chamber.
In general terms: Caco-2 cells form a polarised layer with tight junctions and transporters.

On to `COCCc1ccc(OCC(O)CNC(C)C)cc1` (centres unmarked) [metoprolol, reference compound], for which, where the note is “Caco-2, Caco-2 cell monolayers, read-out: apical to basolateral apparent permeability coefficient”, the Papp A→B at 120 min, 1 µM came to 15.5 ± 0.8 ×10⁻⁶ cm/s. In addition, the Papp B→A at 120 min, 1 µM (Caco-2 cell monolayers, read-out: basolateral to apical apparent permeability coefficient) came out at 15.7 ± 0.8 ×10⁻⁶ cm/s.

These data come from PMC7998731, “Pharmacokinetic Characterization of Supinoxin and Its Physiologically Based Pharmacokinetic Modeling in Rats” (Pharmaceutics, 2021).
